# Values of other authors, collected in patent US10736931B2, “Pharmaceutical compositions comprising plant extracts and methods for reducing duration of a common cold using same” (Matrixx Initiatives, Inc., priority 2014, dated 2020).
# Target: acetylcholine esterase (Homo sapiens, UniProt P22303)
# Conditions: ceramides from L. operculata; Feitosa et al. 2011
# Chain of acetylcholine esterase (P22303 32-614): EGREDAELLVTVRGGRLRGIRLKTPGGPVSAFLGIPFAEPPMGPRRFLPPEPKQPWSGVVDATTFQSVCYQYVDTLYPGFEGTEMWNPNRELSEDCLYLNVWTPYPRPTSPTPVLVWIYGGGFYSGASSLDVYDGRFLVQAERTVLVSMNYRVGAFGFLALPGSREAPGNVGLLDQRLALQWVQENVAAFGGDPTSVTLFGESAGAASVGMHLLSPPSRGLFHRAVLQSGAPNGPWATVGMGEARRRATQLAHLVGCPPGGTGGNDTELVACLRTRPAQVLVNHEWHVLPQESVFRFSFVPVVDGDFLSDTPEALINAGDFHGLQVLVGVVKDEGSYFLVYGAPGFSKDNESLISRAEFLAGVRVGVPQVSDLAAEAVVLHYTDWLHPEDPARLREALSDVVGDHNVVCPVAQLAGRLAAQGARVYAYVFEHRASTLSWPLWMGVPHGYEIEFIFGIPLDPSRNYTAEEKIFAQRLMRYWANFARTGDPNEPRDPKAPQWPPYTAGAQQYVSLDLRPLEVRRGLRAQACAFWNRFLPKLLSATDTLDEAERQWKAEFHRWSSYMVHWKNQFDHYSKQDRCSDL
substance,measurement,value
ceramides,acetylcholine esterase inhibitory effects,high
